Patent US3988308A, “(Tyr^3, Tyr^14)-SRIF and intermediates” (American Home Products Corporation, priority 1974, dated 1976)
No end group written: not given here.

Tests used:
[1] = test system: growth hormone (GH); details: background; Brazeau et al., Science 179 (1973); U.S. Pat. No. 3,842,066; cited from earlier work
[2] = test system: growth hormone release in rat pituitary cell culture; assay: growth hormone inhibiting activity by radioimmunoassay in a rat pituitary cell culture system; type: cell-based; details: tested at 10 ng/ml, 100 ng/ml and 1000ng/ml
Description: (§1) The growth hormone inhibiting activity of the compound of Example 3 was determined by radioimmunoassay in a rat pituitary cell culture system as described by Vale et al, Endocrinology 91, pp 562 (1972) and Grant et al, Biochemical and Biophysical Research Communications 51, pp 100-106 (1973). The compound of Example 3 was tested at 10 ng/ml, 100 ng/ml and 1000ng/ml and was active at these concentrations in inhibiting growth hormone release. The in vivo activity of the compound of Example 3 was determined by dissolving 500 μg of this compound in a mixture of polyethylene glycol (PEG 400) and water (1 ml) and the mixture was injected in rats weighing 200-240 g. Control rats were injected with 80% PEG 400. One hour and forty minutes later the rats were injected i.p. with nembutal at 50 mg/kg. Twenty minutes after the nembutal injection the rats were killed and their blood plasmas were assayed for growth hormone by radioimmunoassay.

[3] = test system: growth hormone; assay: in vivo activity: plasma growth hormone by radioimmunoassay in nembutal-treated rats; details: 500 μg in PEG 400/water (1 ml) injected; rats 200-240 g; nembutal 50 mg/kg i.p. at 1 h 40 min; killed 20 min later; 19 treated rats; control average 117.9 ± 13.6
Description: as §1
The average of 19 treated rats was 80.1 ± 9.0 × 10^-^9 g GH/ml and the average of 11 control rats was 117.9 ± 13.6 × 10^^-9 g GH/ml.

Molecule | inhibition of secretion/release of growth hormone (somatotropin) [1] | inhibiting growth hormone release [2] | blood plasma growth hormone, average of treated rats [3]
(Ala^3,Ala^14)-SRIF: somatostatin analog described in U.S. Pat. No. 3,842,066 (AGAKNFFWKTFTSA; Somatostatin-14; UniProt P61278 103-116, looked up, variant C3A C14A) | inhibiting the release of growth hormone |  | 
H-Ala-Gly-Cys-Lys-Asn-Phe-Phe-Trp-Lys-Thr-Phe-Thr-Ser-Cys-OH (H-AGCKNFFWKTFTSC-OH; ends and bridges not checked) [linear form of somatostatin, synthesized by solid phase methodology] | same biological activity as the somatostatin obtained from a natural source |  | 
AGYKNFFWKTFTSY [Example 3, L-alanylglycyl-L-tyrosyl-L-lysyl-L-asparaginyl-L-phenylalanyl-L-phenylalanyl-L-tryptophyl-L-lysyl-L-threonyl-L-phenylalanyl-L-threonyl-L-seryl-L-tyrosine] |  | active | 80.1 ± 9.0 × 10^-9 g GH/ml
C[C@H](N)C(=O)NCC(=O)N[C@H]1CSSC[C@@H](C(=O)O)NC(=O)[C@H](CO)NC(=O)[C@H]([C@@H](C)O)NC(=O)[C@H](Cc2ccccc2)NC(=O)[C@H]([C@@H](C)O)NC(=O)[C@H](CCCCN)NC(=O)[C@H](Cc2c[nH]c3ccccc23)NC(=O)[C@H](Cc2ccccc2)NC(=O)[C@H](Cc2ccccc2)NC(=O)[C@H](CC(N)=O)NC(=O)[C@H](CCCCN)NC1=O [Somatostatin] | inhibit the secretion of the hormone somatotropin |  | 
